The values that follow come from US20230165864A1, “APPLICATION OF HETEROCYCLIC COMPOUND” (GUANGZHOU JOYO PHARMATECH CO., LTD, priority 2020, published 2023).

For data set [1] the following is noted: Phase III clinical trial (N=287); cited from earlier work.
Data set [2] is described as follows: Bioavailability experiments (pharmacokinetics) in beagle dogs. The following applies: male and female beagle dogs. In kind it is in vivo. On the procedure:
Bioavailability Experiments
During the experimental period, animals were housed in single cages with animal identification codes marked on the cage tags. The 12 non-naïve beagle dogs (6/sex) were randomly divided into 2 groups (3/sex/group).
(1) Non-naïve beagle dogs were administered intravenously (solvent 50% PEG400+50% PBS) at a dose volume of 2 mL/kg per dog (dose of 0.1 mg/kg per dog), and then blood was collected to measure the plasma drug concentration of non-naïve beagle dogs at different time points of 15 minutes, 30 minutes, 1 hour, 2 hours, 4 hours, 6 hours, 8 hours, and 24 hours.
(2) Non-naïve beagle dogs were administered orally at a dose volume of 1 tablet per dog (dose of 0.5 mg per dog), and then blood was collected to measure the plasma drug concentration of non-naïve beagle dogs at different time points of 15 minutes, 30 minutes, 1 hour, 2 hours, 4 hours, 6 hours, 8 hours, and 24 hours; the oral bioavailability of tablets was calculated.
Plasma drug concentration data was processed in a non-compartment model using WinNonlin™ Version 6.2.1 (Pharsight, Mountain View, Calif.) pharmacokinetic software. The peak concentration (Cmax), peak time (Tmax) and quantifiable time were directly read out from the plasma drug concentration-time diagram.
The following pharmacokinetic parameters were calculated using the log-linear trapezoidal method: elimination phase half-life (T1/2), apparent volume of distribution (Vdss) and clearance rate (CL), mean residence time of the drug from 0 to the end time point in vivo (MRT0-last), mean residence time of the drug from 0 to infinite time in vivo (MRT0-inf), the area under the time-plasma concentration curve from 0 to the end time point (AUC0-last), the area under the time-plasma concentration curve from 0 to infinite time (AUC0-inf), initial concentration (C0).

A short description of data set [3]: Clinical trial study of tablets containing compound 11A: fasting blood glucose and safety. In kind it is in vivo, human. The method, then: The embodiments were all derived from a clinical trial study. The subjects were screened and eligible to enter groups according to the entry criteria specified in the clinical protocol. The test drug was administered orally on day 1, and adverse events and combined administration were observed and recorded after administration. After safety evaluation was conducted on day 7 of the single administration period, the subjects received continuous administration of the test drug until the subjects withdrew from the clinical trial. Safety assessments were conducted during the clinical trial according to the time specified in the clinical protocol.
Embodiments 2 to 9 were derived from an ongoing clinical trial study with dose groups of 0.1 mg, 0.2 mg, 0.4 mg, 0.5 mg, 0.7 mg, 0.9 mg, 1.1 mg, and 1.4 mg.

As to `Cc1nc(NC(=O)N2CCC[C@H]2C(N)=O)sc1-c1ccnc(C(C)(C)C(F)(F)F)c1` [Alpelisib], in data set [1], the diarrhea incidence was 57.7%, the “diarrhea incidence above grade 3” value is given as 6.7%, the nausea incidence is listed as 44.7% and the “nausea incidence above grade 3” value is listed as 2.5%. Also, in data set [1], the vomiting incidence is 27.1% and the “vomiting incidence above grade 3” value was 0.7%.

In the case of `COCCOc1cnc2ccc(-c3cnc(OC)c(NS(=O)(=O)c4sc(C)nc4C)c3)cn2c1=O` [Compound 11A], in data set [2] (both sexes, dog, plasma, single intravenous injection 0.1 mg/kg, read-out: apparent volume of distribution (Vdss)), the Vd was 6.16 ± 1.91 L/kg. The AUC(0-t) in data set [2] (both sexes, dog, plasma, single intravenous injection 0.1 mg/kg, read-out: area under the curve AUC0-last) came out at 0.114 ± 0.0276 µM·h. Besides, the half-life (commonly how long it takes for the measured level to halve) in data set [2] (both sexes, dog, plasma, single intravenous injection 0.1 mg/kg, read-out: mean plasma elimination phase half-life Tin (converted)) is 3.21 ± 1.81 h. For the same molecule, in data set [2] (both sexes, dog, plasma, single intravenous injection 0.1 mg/kg, read-out: plasma clearance rate (CL)), the clearance (commonly a measure of how efficiently the substance is removed, as volume per time) is 24.6 ± 6.66 mL/min/kg. In addition, in data set [2] (both sexes, dog, plasma, single oral administration of tablet containing 0.5 mg of 11A (prescription of embodiment 1)), the bioavailability (commonly dose-corrected exposure relative to a reference, in per cent) was found to be 80.9%. Further, the Cmax in data set [2] (both sexes, dog, plasma, single oral administration of tablet containing 0.5 mg of 11A (prescription of embodiment 1), read-out: peak concentration (Cmax)) came to 11.1 ± 2.08 nM. The molecule further returned a peak times in data set [2] (single oral administration of tablet containing 0.5 mg of 11A (prescription of embodiment 1)) of 1.00 ± 0.00 h. In addition, the fasting blood glucose is reported as 6.19 mmol/L in data set [3] (Subject 1, tablet 0.1 mg once a day oral from Nov. 9, 2018, follow-up Mar. 14, 2019, baseline 5.64 mmol/L); 6.45 mmol/L in data set [3] (Subject 2, tablet 0.2 mg once a day oral from Jan. 16, 2019, follow-up Jan. 23, 2019, baseline 5.81 mmol/L); 6.99 mmol/L in data set [3] (Subject 3, tablet 0.4 mg once a day oral from May 30, 2019, follow-up Jun. 5, 2019, baseline 5.63 mmol/L); 8.37 mmol/L in data set [3] (Subject 5, tablet 0.7 mg once a day oral from Nov. 7, 2019, follow-up Nov. 13, 2019, baseline 6.06 mmol/L); 9.44 mmol/L in data set [3] (Subject 5, tablet 0.7 mg once a day oral from Nov. 7, 2019, follow-up Nov. 20, 2019, baseline 6.06 mmol/L); 11.44 mmol/L in data set [3] (Subject 6, 0.7 mg tablet administered continuously again from Nov. 30, 2019, follow-up Dec. 4, 2019). Besides, the fasting blood glucose in data set [3] (Subject 6, tablet 0.7 mg once a day oral from Nov. 21, 2019, follow-up Nov. 27, 2019, baseline 5.87 mmol/L) was found to be 11.4 mmol/L; in data set [3] (Subject 7, tablet 0.7 mg once a day oral from Dec. 10, 2019, follow-up Jan. 20, 2020, baseline 5.92 mmol/L) it was 9.13 mmol/L; in data set [3] (Subject 8, tablet 1.1 mg once a day oral from Dec. 17, 2019 (so in the source), measured Dec. 23, 2020, baseline 6.87 mmol/L) it was 12.66 mmol/L; in data set [3] (Subject 9, tablet 1.4 mg once a day oral from Aug. 27, 2020, measured Sep. 2, 2020, baseline 5.94 mmol/L), 10.77 mmol/L. Besides, the “fasting blood glucose after stopping administration” value in data set [3] (Subject 6, 0.7 mg tablets stopped Nov. 27, 2019, measured Nov. 29, 2019) is “returned to normal”. Besides, the incidence of hyperglycemia in data set [3] (subjects of dose groups 0.1-1.4 mg, during the administering period) is recorded as 80%. The “gastrointestinal side effects such as nausea, vomiting and diarrhea” value in data set [3] (the 8 subjects of embodiments 2 to 9) is “no significant gastrointestinal side effects”.
